Converted amounts (≈) assume the structure as drawn.
Experiments:
[1] = system: Enterococcus faecalis ATCC 29212; assay: Minimum Inhibitory Concentration (MIC), modified microbroth dilution; type: cell-based; conditions: E. faecalis (29212), overnight incubation (18 hours); for MIC50: Enterococcus faecalis, ATCC29212, read-out: MIC50 E. faecalis
[2] = system: E. Coli ATCC 25922; assay: as above; type: cell-based; conditions: E. coli (25922), overnight incubation (18 hours); for MIC50: Escherichia coli, ATCC25922, read-out: MIC50 E. coli
[3] = system: Pseudomonas aeruginosa ATCC 10145; assay: as above; type: cell-based; conditions: P. aeruginosa (10145), overnight incubation (18 hours); for MIC50: Pseudomonas aeruginosa, ATCC10145, read-out: MIC50 P. Aeruginosa
[4] = system: Staphylococcus aureus ATCC 27660; assay: as above; type: cell-based; conditions: S. aureus (27660), overnight incubation (18 hours); for MIC50: Staphylococcus aureus, ATCC27660, read-out: MIC50 S. aureus
[5] = system: Klebsiella pneumoniae ATCC 13883; assay: as above; type: cell-based; conditions: K. pneumoniae (13883), overnight incubation (18 hours); for MIC50: Klebsiella pneumoniae, ATCC13883, read-out: MIC50 K. Pnuemnoiae
[6] = Cytotoxicity colorimetric (tetrazolium) assay; type: cell-based, mouse; conditions: mouse, NIH/3T3 cells, one hour with compound in serum-free media
Method: (§1) Cytotoxicity of the compounds was evaluated in a colorimetric assay using a transformed human liver cell line (HepG2, HB-8065) and an embryonic mouse cell line (NIH/3T3 cells, CRL-1658). This assay measures the bioreduction of a novel tetrazolium compound to a soluble formazan product by viable cells. HepG2 cells were seeded in 96 well plates at 2×10^4 cells/well in MEM medium with 10% fetal bovine serum (FBS) 24 hours prior to use. NIH/3T3 cells were seeded in 96 well plates at 2×10^4 cells/well in DMEM medium with 10% bovine calf serum (BCS) 24 hours prior to use. Cell monolayers were rinsed in serum-free media and incubated for one hour with compounds in serum-free media. After incubation, the media is replaced with serum supplemented media and live cells were measured using the Cell Titer 96 Aqueous […] Assay kit (Promega, Madison, Wis.). EC50 values were determined using a four parameter logistic equation: Y=Bottom+(Top-Bottom)/(1+10̂((LogEC50−X)*HillSlope)).
(§2) Actual results from a representative cytotoxicity assay are shown below in Table 2. Data is expressed as EC50 in μg/mL.

[7] = Cytotoxicity colorimetric (tetrazolium) assay; type: cell-based, human; conditions: human, HepG2 cells, one hour with compound in serum-free media
Method: as §1, §2

Row | SMILES | MIC50 [1] [µg/mL] | MIC50 [2] [µg/mL] | MIC50 [3] [µg/mL] | MIC50 [4] [µg/mL] | MIC50 [5] [µg/mL] | MIC50 E. faecalis [1] [µg/mL] | MIC50 E. coli [2] [µg/mL] | MIC50 P. Aeruginosa [3] [µg/mL] | MIC50 S. aureus [4] [µg/mL] | MIC50 K. Pnuemnoiae [5] [µg/mL] | also measured
1 | N=C(N)NCC#Cc1cc(C#CCNC(=N)N)cc(-c2cccc(-c3cc(C#CCNC(=N)N)cc(C#CCNC(=N)N)c3)c2)c1 [Compound 123] | 0.78 (≈ 1.28 µM) | 3.13 (≈ 5.13 µM) | 6.25 (≈ 10.2 µM) | 0.78 (≈ 1.28 µM) | 12.5 (≈ 20.5 µM) | – | – | – | – | – | EC50 at 1 h ([6]; NIH/3T3 cells (CRL-1658)): 115 µg/mL (≈ 188 µM)
2 | N=C(N)NCCCOc1cc(OCCCNC(=N)N)c(-c2ccc(F)c(F)c2)cc1-c1ccc(F)c(F)c1 [Compound 119] | – | – | – | – | – | – | – | – | – | – | EC50 at 1 h ([6]; NIH/3T3 cells (CRL-1658)): 113 µg/mL (≈ 213 µM)
3 | N=C(N)NCCCOc1cc(OCCCNC(=N)N)cc(-c2ccc3sc4ccc(-c5cc(OCCCN)c(OCCCN)c(OCCCN)c5)cc4c3c2)c1 [Compound 185] | – | – | – | – | – | 1.56 (≈ 1.98 µM) | 6.25 (≈ 7.95 µM) | 25 (≈ 31.8 µM) | 0.78 (≈ 0.992 µM) | 12.5 (≈ 15.9 µM) | –
4 | NCCCN1c2ccc(NC(=O)Nc3ccc4c(c3)Sc3ccc(C(F)(F)F)cc3N4CCCN)cc2Sc2ccc(C(F)(F)F)cc21 [Compound 143] | 1.56 (≈ 2.21 µM) | 0.78 (≈ 1.11 µM) | 12.5 (≈ 17.7 µM) | 0.78 (≈ 1.11 µM) | 3.13 (≈ 4.44 µM) | – | – | – | – | – | –
5 | NCCc1cc(CCN)cc(-c2ccc(-c3cccc(-c4ccc(-c5cc(CCN)cc(CCN)c5)s4)c3)s2)c1 [Compound 138] | 1.56 (≈ 2.75 µM) | 12.5 (≈ 22.1 µM) | 12.5 (≈ 22.1 µM) | 0.39 (≈ 0.688 µM) | 25 (≈ 44.1 µM) | – | – | – | – | – | –
6 | NCCCn1c2ccccc2c2ccccc21 [Compound 105] | – | – | – | – | – | >100 | >100 | >100 | >100 | >100 | –
7 | NCCCN1c2ccccc2Sc2ccc(Cl)cc21 [Compound 103] | > 100 | > 100 | > 100 | 25 (≈ 86 µM) | > 100 | – | – | – | – | – | –
8 | NCCCN1c2ccc(N)cc2Sc2ccc(C(F)(F)F)cc21 [Compound 104] | > 100 | 100 (≈ 295 µM) | > 100 | 100 (≈ 295 µM) | > 100 | – | – | – | – | – | –
9 | N=C(N)NCCc1cc(CCNC(=N)N)cc(-c2ccc(-c3cccc(-c4ccc(-c5cc(CCNC(=N)N)cc(CCNC(=N)N)c5)s4)c3)s2)c1 [Compound 139] | 0.78 (≈ 1.06 µM) | 6.25 (≈ 8.5 µM) | 12.5 (≈ 17 µM) | 0.39 (≈ 0.531 µM) | 3.13 (≈ 4.26 µM) | – | – | – | – | – | –
10 | N=C(N)NCCCOc1cc(OCCCNC(=N)N)c(-c2cc(F)c(F)c(F)c2)cc1-c1cc(F)c(F)c(F)c1 [Compound 120] | – | – | – | – | – | – | – | – | – | – | EC50 at 1 h ([6]; NIH/3T3 cells (CRL-1658)): 99 µg/mL (≈ 174 µM)
11 | NCCCN1c2ccccc2Sc2ccc(C(F)(F)F)cc21 [Compound 101] | 12.5 (≈ 38.5 µM) | 25 (≈ 77.1 µM) | > 100 | 25 (≈ 77.1 µM) | 50 (≈ 154 µM) | – | – | – | – | – | EC50 at 1 h ([6]; NIH/3T3 cells (CRL-1658)): 9 µg/mL (≈ 27.7 µM)
12 | N=C(N)NCCCOc1cc(-c2ccc3sc4ccc(-c5cc(OCCCNC(=N)N)c(OCCCNC(=N)N)c(OCCCNC(=N)N)c5)cc4c3c2)cc(OCCCNC(=N)N)c1OCCCNC(=N)N [Compound 186] | – | – | – | – | – | 3.13 (≈ 3.05 µM) | 12.5 (≈ 12.2 µM) | 12.5 (≈ 12.2 µM) | 0.78 (≈ 0.759 µM) | 6.25 (≈ 6.08 µM) | –
13 | N=C(N)Nc1ccc(-c2nnc(-c3ccc(NC(=N)N)cc3)o2)cc1 [Compound 127] | > 100 | > 100 | > 100 | 50 (≈ 149 µM) | > 100 | – | – | – | – | – | –
14 | NCCCCn1cc(-c2cccc(-c3cn(CCCCN)nn3)c2)nn1 [Compound 107] | – | – | – | – | – | >100 | >100 | >100 | >100 | >100 | –
15 | NCCn1cc(-c2cccc(-c3cn(CCN)nn3)c2)nn1 [Compound 109] | – | – | – | – | – | >100 | >100 | >100 | >100 | >100 | –
16 | N=C(N)NCCC#Cc1cc(-c2cc(OCCCNC(=N)N)cc(-c3cc(C#CCCNC(=N)N)cc(C(F)(F)F)c3)c2)cc(C(F)(F)F)c1 [Compound 121] | – | – | – | – | – | – | – | – | – | – | EC50 at 1 h ([6]; NIH/3T3 cells (CRL-1658)): 37 µg/mL (≈ 52.9 µM)
17 | NCCNc1ccc(-c2ccc3sc4ccc(-c5ccc(NCCN)cc5)cc4c3c2)cc1 [Compound 173] | – | – | – | – | – | 1.56 (≈ 3.45 µM) | 6.25 (≈ 13.8 µM) | >50 | 0.195 (≈ 0.431 µM) | 3.13 (≈ 6.92 µM) | –
18 | NCCCn1cc(-c2cccc(-c3cn(CCCN)nn3)c2)nn1 [Compound 108] | – | – | – | – | – | >100 | >100 | >100 | >100 | >100 | –
19 | NCC#Cc1cc(C#CCN)cc(-c2cccc(-c3cc(C#CCN)cc(C#CCN)c3)c2)c1 [Compound 124] | 25 (≈ 56.5 µM) | 50 (≈ 113 µM) | 50 (≈ 113 µM) | 50 (≈ 113 µM) | > 50 | – | – | – | – | – | EC50 at 1 h ([6]; NIH/3T3 cells (CRL-1658)): 192 µg/mL (≈ 435 µM)
20 | NCC(CN)c1cc(Br)cc(C#Cc2cccc(C#Cc3cc(Br)cc(C(CN)CN)c3)c2)c1 [Compound 190] | 0.39 (≈ 0.672 µM) | 1.56 (≈ 2.69 µM) | 12.5 (≈ 21.5 µM) | 0.78 (≈ 1.34 µM) | 3.13 (≈ 5.39 µM) | – | – | – | – | – | –
21 | N=C(N)NC/C=C/c1cc(/C=C/CNC(=N)N)cc(-c2cccc(-c3cc(/C=C/CNC(=N)N)cc(/C=C/CNC(=N)N)c3)c2)c1 [Compound 118] | 12.5 (≈ 20.2 µM) | 0.78 (≈ 1.26 µM) | 12.5 (≈ 20.2 µM) | 0.78 (≈ 1.26 µM) | 12.5 (≈ 20.2 µM) | – | – | – | – | – | –
22 | Cl.Cl.NCCCc1cccc(-c2cccc(-c3cccc(CCCN)c3)c2)c1 [Compound 110] | – | – | – | – | – | 100 | 25 | 100 | 25 | 100 | –
23 | NC/C=C/c1cc(/C=C/CN)cc(-c2cccc(-c3cc(/C=C/CN)cc(/C=C/CN)c3)c2)c1 [Compound 117] | 50 (≈ 111 µM) | 25 (≈ 55.5 µM) | 50 (≈ 111 µM) | 12.5 (≈ 27.7 µM) | > 50 | – | – | – | – | – | –
24 | CCn1c2ccc(-c3cccc(N)c3)cc2c2cc(-c3cccc(N)c3)ccc21 [Compound 176] | – | – | – | – | – | >50 | 12.5 (≈ 33.1 µM) | 12.5 (≈ 33.1 µM) | 0.39 (≈ 1.03 µM) | >50 | –
25 | NCCCn1c2cc(-c3cccc(CN(CCN)CCN)c3)ccc2c2ccc(-c3cccc(CN(CCN)CCN)c3)cc21 [Compound 178] | 12.5 (≈ 20.6 µM) | 3.13 (≈ 5.16 µM) | 12.5 (≈ 20.6 µM) | 0.39 (≈ 0.643 µM) | 12.5 (≈ 20.6 µM) | – | – | – | – | – | EC50 at 1 h ([7]; HepG2 cells (HB-8065)): 228 µg/mL (≈ 376 µM)
26 | NCCc1cc(CCN)cc(-c2cc(F)cc(-c3cc(F)cc(-c4cc(CCN)cc(CCN)c4)c3)c2)c1 [Compound 150] | – | – | – | – | – | – | – | – | – | – | EC50 at 1 h [7]: 486 µg/mL (≈ 944 µM); EC50 at 1 h [6]: 427 µg/mL (≈ 830 µM)

— patent US20140308317A1, “Polymeric Compounds And Methods Of Making And Using The Same” (CELLCEUTIX CORPORATION, priority 2012, published 2014)
